# In ChEMBL document CHEMBL2177069, “Novel peptidomimetic compounds containing redox active chalcogens and quinones as potential anticancer agents” (Eur J Med Chem, 2012):
# Assays:
# Type in all cases: functional
# [1] = tested on: UACC-62; test: Cytotoxicity against human UACC62 cells
# [2] = tested on: SK-MEL-5; test: Cytotoxicity against human SK-MEL-5 cells
# [3] = tested on: SK-MEL-2; test: Cytotoxicity against human SK-MEL-2 cells
# [4] = tested on: Malme-3M; test: Cytotoxicity against human MALME-3M cells
# [5] = tested on: LOX IMVI; test: Cytotoxicity against human LOXIMVI cells
# [6] = tested on: SNB-75; test: Cytotoxicity against human SNB75 cells
# [7] = tested on: SF-539; test: Cytotoxicity against human SF539 cells
# [8] = tested on: SF-268; test: Cytotoxicity against human SF268 cells
# [9] = tested on: SF-295; test: Cytotoxicity against human SF295 cells
# [10] = tested on: SW-620; test: Cytotoxicity against human SW620 cells
# [11] = tested on: HT-29; test: Cytotoxicity against human HT-29 cells
# [12] = tested on: HCC 2998; test: Cytotoxicity against human HCC2998 cells
# [13] = tested on: COLO 205; test: Cytotoxicity against human COLO205 cells
# [14] = tested on: A549; test: Cytotoxicity against human A549 cells
# [15] = tested on: RPMI-8226; test: Cytotoxicity against human RPMI8226 cells
# [16] = tested on: MOLT-4; test: Cytotoxicity against human MOLT4 cells
# [17] = tested on: HL-60; test: Cytotoxicity against human HL60 cells
smiles,measurement,setting,value
CC1=C(SCCC(=O)OC(C[Se]C2=C(C)C(=O)c3ccccc3C2=O)C(=O)NCCCCCC(=O)OCc2ccccc2)C(=O)c2ccccc2C1=O (stereo unspecified),GI50,[1],8.13 µM
same,LC50,[1],46.8 µM
same,TGI,[1]; read-out: pTGI (converted),20.9 µM
same,GI50,[2],3.8 µM
same,LC50,[2],39.8 µM
same,TGI,[2]; read-out: pTGI (converted),14.8 µM
same,GI50,[3],5.5 µM
same,LC50,[3],52.5 µM
same,TGI,[3]; read-out: pTGI (converted),19.1 µM
same,GI50,[4],2.09 µM
same,LC50,[4],56.2 µM
same,TGI,[4]; read-out: pTGI (converted),6.92 µM
same,GI50,[5],2.75 µM
same,LC50,[5],69.2 µM
same,TGI,[5]; read-out: pTGI (converted),11.5 µM
same,GI50,[6],11.5 µM
same,LC50,[6],49 µM
same,TGI,[6]; read-out: pTGI (converted),24 µM
same,GI50,[7],4.47 µM
same,LC50,[7],43.7 µM
same,TGI,[7]; read-out: pTGI (converted),15.5 µM
same,GI50,[8],7.41 µM
same,LC50,[8],44.7 µM
same,TGI,[8]; read-out: pTGI (converted),20 µM
same,GI50,[9],2.51 µM
same,LC50,[9],97.7 µM
same,TGI,[9]; read-out: pTGI (converted),8.71 µM
same,GI50,[10],2.45 µM
same,LC50,[10],36.3 µM
same,TGI,[10]; read-out: pTGI (converted),9.33 µM
same,GI50,[11],3.55 µM
same,LC50,[11],83.2 µM
same,TGI,[11]; read-out: pTGI (converted),20.9 µM
same,GI50,[12],6.46 µM
same,LC50,[12],46.8 µM
same,TGI,[12]; read-out: pTGI (converted),18.6 µM
same,GI50,[13],7.94 µM
same,CC50,[13]; read-out: pLC50 (the source's name) (converted),56.2 µM
same,TGI,[13]; read-out: pTGI (converted),22.4 µM
same,GI50,[14],3.98 µM
same,LC50,[14],> 100 µM
same,TGI,[14]; read-out: pTGI (converted),11.5 µM
same,GI50,[15],2.63 µM
same,LC50,[15],> 100 µM
same,TGI,[15]; read-out: pTGI (converted),7.76 µM
same,GI50,[16],4.07 µM
same,LC50,[16],> 100 µM
same,TGI,[16]; read-out: pTGI (converted),> 100 µM
same,GI50,[17],3.09 µM
same,LC50,[17],> 100 µM
same,TGI,[17]; read-out: pTGI (converted),8.51 µM
